Experiments:
[1] = test system: human breast cancer patient derived tumor (OD-BRE-0438); experiment: Growth inhibiting effect of compound A on patient-derived tumor graft in mice (Reference Example 1, no pretreatment); format: in vivo; settings: NOD-SCID mice
Description: (§1) The long and short diameters of the tumors were measured using an electronic digital caliper (Digimatic™ caliper by Mitsutoyo Corp.). The tumor volumes were calculated by the following formula.
(§2) Tumor volume (mm^3)=Long diameter (mm)×short diameter (mm)×short diameter (mm)/2
Reference Example 1 Growth inhibiting effect of compound A on human breast cancer patient derived tumor (OD-BRE-0438)
The antitumor effect of administering compound A was evaluated using NOD-SCID mice (NOD.CB17-Prkdcscid/J, female, Charles River Japan), with 6 mice per group.
Tumor slices were grafted under the mouse skin and subcultured. The tumors excised from the mice were cut to about 4 mm-square, and a trocar ((φ3.5 mm) was used for grafting under the skin of the right flank of each mouse, for evaluation of the antitumor effect.
A 1 mg/mL solution of β-estradiol (FujiFilm-Wako) was prepared with 99.5% ethanol (FujiFilm-Wako). It was then adjusted to a final concentration of […] using supply-use sterilized water. The mice were given free access to food from the day of tumor grafting until the end of the test.
Compound A was dissolved in purified water to a concentration of 2.5 mg/mL. On the 32nd day after tumor grafting, the mice were divided into groups in such a manner that the average tumor volumes were approximately the same in each group. The tumor volumes were calculated by the same method as Example 1.
Compound A was orally administered to the mice in each group at a dose of 50 mg/kg (20 mL/kg), once per day for 14 days. The control group was untreated.
The tumor volume and body weight of each mouse were measured on day 3, 7, 10 and 14 after starting administration of compound A. The changes in mean tumor volume in each group are shown in Table 2 and FIG. 2.

[2] = test system: human breast cancer patient-derived tumor (OD-BRE-0438); experiment: Growth inhibition effect of compound A after palbociclib and fulvestrant administration, patient-derived tumor graft in mice; format: in vivo; settings: NOD-SCID mice, after 14 days palbociclib + fulvestrant
Description: Example 1 Growth inhibition effect of compound A after palbociclib and fulvestrant administration for human breast cancer patient-derived tumor (OD-BRE-0438) Using NOD-SCID mice (NOD.CB17-Prkdcscid/J, female, Charles River Japan), with 5 to 6 mice per group, the antitumor effect of administering compound A after completion of an administration period with palbociclib and fulvestrant was evaluated.
OD-BRE-0438 is a tumor line from an estrogen receptor-positive breast cancer patient, established by Oncodesign Co. The tumor slices were grafted under the mouse skin and subcultured. The tumors excised from the mice were cut to about 4 mm-square, and a trocar (φ3.5 mm) was used for grafting under the skin of the right flank of each mouse.
A 1 mg/mL solution of β-estradiol (FujiFilm-Wako) was prepared with 99.5% ethanol (FujiFilm-Wako). It was then adjusted to a final concentration of 2.5 μg/mL using supply-use sterilized water. The mouse were given free access to food from the day of tumor grafting until the end of the test.
as §1, §2
Commercially available palbociclib isethionate (Selleck Chemicals) was adjusted to 10 mg/mL concentration with 50 mM sodium lactate buffer (pH 4.0). A commercially available fulvestrant formulation (trade name: Faslodex Intramuscular Injection 250 mg, by AstraZeneca) was used directly.
Palbociclib and fulvestrant administration was initiated from the 26th day after tumor grafting. Palbociclib was orally administered once per day for 14 days at a dosage of 100 mg/kg (10 mL/kg). Fulvestrant was hypodermically injected on the 26th and 33rd day, at a dosage of 250 mg/kg (5 mL/kg).
On the 40th day, the mice were divided into groups in such a manner that the average tumor volumes were approximately the same in each group. The control group consisted of 6 mice, and the compound A-administered group consisted of 5 mice, at different dosages.
Compound A was dissolved in purified water to a concentration of 2.5 mg/mL. Compound A was orally administered to the mice in each group at a dose of 25 mg/kg (10 mL/kg) or 50 mg/kg (20 mL/kg), once per day for 14 days. The control group was untreated.
The tumor volume and body weight of each mouse were measured on day 3, 7, 10 and 14 after starting administration of compound A. The changes in mean tumor volume in each group are shown in Table 1 and FIG. 1.

[3] = Day 0 (baseline at grouping), compound A 50 mg/kg oral once per day
[4] = Day 3, compound A 50 mg/kg oral once per day
[5] = Day 7, compound A 50 mg/kg oral once per day
[6] = Day 10, compound A 50 mg/kg oral once per day
[7] = Day 14, compound A 50 mg/kg oral once per day

With `CNC(=O)n1ccc2cc(Oc3ccnc(NC(=O)c4ccc(C5CCN(CCO)CC5)cc4)c3)c(OCCOC)cc21` [Compound A, 5-((2-(4-(1-(2-hydroxyethyl)piperidin-4-yl)benzamide)pyridin-4-yl)oxy)-6-(2-methoxyethoxy)-N-methyl-1H-indole-1-carboxamide] the mean tumor volume [1, 3] was 234.1 mm^3, the mean tumor volume [1, 4] was 267.0 mm^3 and the mean tumor volume [1, 5] was 338.8 mm^3. The mean tumor volume [1, 6] was 380.8 mm^3, the mean tumor volume [1, 7] was 403.4 mm^3 and the mean tumor volume ([2]; Day 0 (baseline at grouping), compound A 25 mg/kg oral once per day) was 261.4 mm^3. For the same compound, the mean tumor volume [2, 3] was 262.6 mm^3, the mean tumor volume ([2]; Day 3, compound A 25 mg/kg oral once per day) was 211.9 mm^3 and the mean tumor volume [2, 4] was 174.8 mm^3. It also gave a mean tumor volume ([2]; Day 7, compound A 25 mg/kg oral once per day) of 167.6 mm^3, a mean tumor volume [2, 5] of 136.1 mm^3 and a mean tumor volume ([2]; Day 10, compound A 25 mg/kg oral once per day) of 138.3 mm^3. It also gave a mean tumor volume [2, 6] of 110.4 mm^3, a mean tumor volume ([2]; Day 14, compound A 25 mg/kg oral once per day) of 134.1 mm^3 and a mean tumor volume [2, 7] of 96.6 mm^3.

From patent publication US20230149381A1, “BREAST CANCER THERAPEUTIC AGENT” (Eisai R&D Management Co., Ltd., priority 2020, published 2023)
